From patent publication US10751322B2, “Indole-3-aldehyde for treating dysreactive immune disorders” (Universita′ degli Studi di Perugia, priority 2013, dated 2020)

How the values were obtained:
Candida albicans [1] = test: Infection by C. albicans, fungus given intragastrically; type: in vivo, mice; settings: 18 mg/kg intragastrically daily, 7 days
Experimental: (§1) For these verifications, cultures were set up of mice stomachs and colons stimulated with 1 or 100 mM of IAld for 24 hours in vitro before determining the transcription of the above indicated genes by means of polymerase reaction. The histograms A-E show the activation (expressed in terms of the number of times the mRNA increases) of the genes Cyp1A1, Cyp1B1, IL-22, IL-10 and IDO1 respectively in the stomach (top diagram) and in the colon (bottom diagram) as a consequence of the stimulation. […] For comparison, also indicated are the values in the absence of stimulation with IAld. […] To assess the therapeutic effect in treating candidiasis, two experimental models were used of infection by C. albicans obtained by administration of the fungus intragastrically (by means of a tube) and intravaginally (by means of tip) respectively. To assess the therapeutic effect in treating colitis, the model used requires the administration of an irritant (dextran sodium sulphate, DDS), through the mouth. The assessment was made on mice C57BL/6 and on mice AhR^−/−, i.e., mice from which the AhR receptor had been artificially removed. The treatment with IAld lasted for 7 days.

Candida albicans [2] = test: Infection by C. albicans, fungus given intravaginally; type: in vivo, mice; settings: 18 mg/kg intragastrically daily, 7 days
Experimental: as §1

AhR = biological target: T1, AhR (Mus musculus, UniProt P30561); test: AhR-responsive luciferase reporter test of agonist activity; type: cell-based; settings: cell line H1L1.1c2, FIG. 1
T1 construct: endogenous in cells; host or cells: H1L1.1c2
T1 sequence (P30561 10-805 limits assumed): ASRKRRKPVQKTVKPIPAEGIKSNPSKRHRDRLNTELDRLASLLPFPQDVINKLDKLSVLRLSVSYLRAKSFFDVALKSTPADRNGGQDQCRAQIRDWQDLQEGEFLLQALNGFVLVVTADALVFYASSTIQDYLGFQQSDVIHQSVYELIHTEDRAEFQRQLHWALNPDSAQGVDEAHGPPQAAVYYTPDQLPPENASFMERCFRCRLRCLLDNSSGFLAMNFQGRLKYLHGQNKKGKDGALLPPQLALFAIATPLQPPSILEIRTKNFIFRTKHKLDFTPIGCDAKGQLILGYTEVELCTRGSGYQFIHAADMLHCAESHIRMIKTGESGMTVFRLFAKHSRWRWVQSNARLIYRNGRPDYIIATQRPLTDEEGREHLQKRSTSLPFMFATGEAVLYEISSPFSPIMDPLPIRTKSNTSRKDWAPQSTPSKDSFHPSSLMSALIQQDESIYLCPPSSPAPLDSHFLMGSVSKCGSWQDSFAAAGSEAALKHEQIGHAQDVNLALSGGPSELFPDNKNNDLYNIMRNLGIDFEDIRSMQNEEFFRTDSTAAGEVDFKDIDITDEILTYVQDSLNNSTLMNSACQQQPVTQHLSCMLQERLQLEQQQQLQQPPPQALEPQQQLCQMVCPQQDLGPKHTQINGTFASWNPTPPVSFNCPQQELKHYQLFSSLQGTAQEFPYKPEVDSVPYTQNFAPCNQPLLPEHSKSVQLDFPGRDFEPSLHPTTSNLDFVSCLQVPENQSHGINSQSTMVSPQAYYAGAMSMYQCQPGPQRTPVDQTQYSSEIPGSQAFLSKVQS
T1 sequence (P11499 whole entry partner): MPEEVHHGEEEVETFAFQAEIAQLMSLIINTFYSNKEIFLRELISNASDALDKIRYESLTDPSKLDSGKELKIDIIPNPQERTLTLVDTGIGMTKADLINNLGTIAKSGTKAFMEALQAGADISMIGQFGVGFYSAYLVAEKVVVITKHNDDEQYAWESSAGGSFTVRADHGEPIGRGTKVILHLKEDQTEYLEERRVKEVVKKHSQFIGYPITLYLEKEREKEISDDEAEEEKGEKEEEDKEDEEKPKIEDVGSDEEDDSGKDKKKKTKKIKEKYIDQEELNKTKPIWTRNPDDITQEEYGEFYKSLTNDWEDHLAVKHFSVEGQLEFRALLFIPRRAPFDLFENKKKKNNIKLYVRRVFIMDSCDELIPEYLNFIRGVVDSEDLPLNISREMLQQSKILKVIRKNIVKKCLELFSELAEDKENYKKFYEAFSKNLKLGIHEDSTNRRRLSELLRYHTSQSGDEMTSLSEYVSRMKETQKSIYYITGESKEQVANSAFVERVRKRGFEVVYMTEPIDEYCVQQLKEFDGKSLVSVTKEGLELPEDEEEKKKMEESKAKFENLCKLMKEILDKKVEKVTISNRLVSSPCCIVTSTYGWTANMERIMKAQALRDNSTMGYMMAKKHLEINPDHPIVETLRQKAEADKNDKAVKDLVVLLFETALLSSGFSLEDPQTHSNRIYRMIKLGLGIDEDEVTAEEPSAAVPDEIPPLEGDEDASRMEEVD
T1 sequence (O08915 whole entry partner): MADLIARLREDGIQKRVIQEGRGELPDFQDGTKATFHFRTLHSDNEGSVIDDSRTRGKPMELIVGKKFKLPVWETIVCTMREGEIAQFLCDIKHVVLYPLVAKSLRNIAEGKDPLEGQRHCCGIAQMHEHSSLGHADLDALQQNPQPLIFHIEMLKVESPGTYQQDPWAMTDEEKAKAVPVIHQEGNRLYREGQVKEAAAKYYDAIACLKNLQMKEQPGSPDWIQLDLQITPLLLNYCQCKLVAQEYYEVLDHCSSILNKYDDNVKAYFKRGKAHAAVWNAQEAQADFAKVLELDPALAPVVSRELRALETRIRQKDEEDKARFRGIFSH
Experimental: For this test, an AhR-responsive cell line was stimulated (cell line H1L1.1c2 containing a luciferase of firefly sensitive to stably transfected AhR) with IAld, indole-3-acetaldehyde (IAAld), indole-3-acetic acid (IAA) and indole-3-lactic acid (ILA). In a way well known to the technician in the field, the agonist activity was determined by means of luciferase test, and in FIG. 1 the luciferase activity of the different ligands, representative of such agonist activity, has been indicated, on the ordinate, as a percentage of the response induced by 50 nM of formylindolo[3,2-b]carbazole (FICZ) according to the ligand dose, expressed in logarithmic scale on the abscissa.

[3] = system: genes Cyp1A1, Cyp1B1, IL-22, IL-10 and IDO1; type: cell-based, mice
Experimental: as §1

colitis = test: Colitis model induced by dextran sodium sulphate through the mouth; type: in vivo, mice; settings: 18 mg/kg intragastrically daily, 7 days
Experimental: as §1

O=Cc1c[nH]c2ccccc12 [IAld, IH-indole-3-carbaldehyde]
therapeutic effect in mice AhR−/− versus C57BL/6 (Candida albicans [1]; gastric candidiasis, mice AhR−/−): only to be found in mice C57BL/6 and not in mice AhR^−/− | growth of Candida albicans (CFU) at stomach level (Candida albicans [1]; mice C57BL/6, FIG. 3 diagram A): significant reduction in growth | activation of IL-22 and IL-10 in the stomach (Candida albicans [1]; mice C57BL/6, FIG. 3 histogram B): contemporaneous activation of IL-22 and IL-10 | growth of Candida albicans (CFU) at vagina level (Candida albicans [2]; mice C57BL/6, FIG. 3 diagram C): significant reduction in growth | activation of IL-22 and IL-10 in the vagina (Candida albicans [2]; mice C57BL/6, FIG. 3 histogram B (so in the source)): contemporaneous activation of IL-22 and IL-10 | therapeutic effect in mice AhR−/− versus C57BL/6 (Candida albicans [2]; vaginal candidiasis, mice AhR−/−): only to be found in mice C57BL/6 and not in mice AhR^−/− | dose dependence of AhR-agonist activity (AhR): closely dependent on the dose | AhR-agonist activity (luciferase activity as a percentage of the response induced by 50 nM FICZ) (AhR; compared with IAAld, ILA and IAA): substantially comparable to that of IAAld and is superior to that of ILA and IAA | dose dependence of gene activation [3]: strongly dependent on the dose | therapeutic effect in mice AhR−/− versus C57BL/6 (colitis; colitis, mice AhR−/−): only to be found in mice C57BL/6 and not in mice AhR^−/− | percentage variation in body weight (colitis; mice C57BL/6 with colitis, FIG. 3 graph E): prevention of the reduction in body weight | degree of tissue inflammation (colon histopathology) (colitis; mice C57BL/6 with colitis, FIG. 3 photographs F): improvement in the degree of tissue inflammation | cells producing IL-22 (immunofluorescence) (colitis; mice C57BL/6 with colitis, FIG. 3 photographs G): expansion of cells producing IL-22
